The source of these data is patent US20140342065A1 (priority 2012, published 2014).

SMILES strings stand for the structures.

The test system of one experiment is bacteria or yeast. Particulars: exposed one day (NaHS 50 mg, gas 40 ppm or saturated water 0.04% 1 ml), then sealed two months at room temperature. The text has this:
Control counterparts were also kept at room temperature within a closed environment. Then, the plates were removed from these environments, sealed and placed at room temperature for two months.

Experiment [1] deals with fruits, vegetables, meat, chicken and salmon; yeast and/or bacteria. The experiment is described as follows: Food preservation with 500 mg NaHS in closed container at room temperature (FIG. 10). On the procedure: Representative samples of foods shown include fruits, vegetables, meat, chicken and salmon. […] Foods and fruits were stored in closed containers. The containers were made of aluminum with a plastic lid that snugly fitted onto the container rim. […] Control group (Control) of foods and fruits were stored within the containers. The experimental group (Exp) of foods and fruits were placed in the same type of containers and 500 mg of NaHS was placed in a glass cup which was placed in one corner of the container of the Exp group. The containers were not sealed. Using a H2S gas detector capable of detecting 1 to 500 ppm of H2S, no H2S was detected outside the containers. The amount of gas within the Exp containers varied from 5-40 ppm during the course of exposure. […] Experiments were carried out at room temperature for the durations shown. […] There is small change in color, consistency, and of the same food group and there is no evidence of growth of yeast in the NaHS treated group. Strawberry 80. […] The fruit also lost its consistency and is discolored. […] Raspberry 82. Growth of yeast is seen by day 4 and is pronounced on day 6 (arrow 83) in the control group. The fruit also lost its consistency and is discolored. […] Blackberry 84. Growth of yeast is seen by day 4 which is pronounced by day 6 (arrow 85) in the control group. The fruit also lost its consistency and is discolored. […] Banana 86. Growth of yeast is seen by day 8 (arrow 87) in the control group. The fruit also lost its consistency and is discolored. […] Sprout 88. Growth of yeast and bacteria is seen by day 4 (arrow 89) in the control group. Sprout also lost its consistency and is discolored. […] Leek 90. The vegetable is discolored in the control group by day 3. […] Avocado 91. Avocado was either homogenized (top two rows) or cut into small 1×1 cm pieces (bottom two rows) and stored in the containers. […] Mushroom 92. Mushroom is discolored in the control group. […] Cantaloupe 93. Growth of yeast is seen by day 3 and is severe on day 4 (arrows 94) in the control group. The fruit also lost its consistency and is discolored. […] Red meat 95 (top), Chicken 96 (middle) and Salmon 97 (Bottom). The control container developed a foul smell on day 3 which was pronounced on day 4. Larvae developed on day 3 in the control group and flies were found on day 4 in the control group. […] Agar plate cultures, 98. Samples from each fruit were diluted in phosphate buffered saline, pH 7.4. From each sample, 20 microliters was streaked on agar plates and plates were maintained either at room temperature or at 37° C. Samples from control group yielded bacteria or yeast only from control group. To directly test growth of these bacteria and yeast in presence of NaHS, samples of bacteria and yeast were streaked on agar plates and then stored without or with NaHS. 50 mg of NaHS was placed in an aluminum chamber and these were inserted on both sides of the Exp Petri dishes. Petri dishes were placed at room temperature or at 37° C. Colonies of bacteria and yeast were evident in the control group on day 1 and coalesced by day 3 as shown in the representative cultures 98. […] No growth was found for up to 2 months following initiation of cultures.

The next experiment concerns freshly cut broccoli. As to the kind of experiment: NaHS solution fumigation of freshly cut broccoli. The protocol:
(§1) Aqueous NaHS solutions (0.25-3.5 mmol/L) could release H2S gas (10^−12˜10^−10 mol/L). H2S rapidly, reached to the highest levels within several minutes and maintained a constant concentration. […] The NaHS solution was renewed every 48 or 72 hours. The NaHS solution was placed in a sealed container separated by a partition board with pores on it. The fresh cut vegetables including Broccoli, Lettuce, Lotus Root, Yam, Pumpkin, Sweet Potato, Potato, etc, and the fresh cut fruits Apple, Pear, Kiwi Fruit, Tomato, Hami Melon, and Peach were placed above the board, while the NaHS solution was placed under the board. Therefore, the fresh cut vegetables and fruits were fumigated with H2S gas released from NaHS in the solution.
The controls of fresh cut broccoli that were treated with water (0.0 mmol/L NaHS) solution lost their edibility on day 3, while the shelf life of freshly cut broccoli treated with 0.25 mmol/L-1.75 mmol/L NaHS solution was prolonged by 2-3 days. […] The control of freshly cut broccoli treated with 0.0 mmol/L NaHS solution underwent rot process (due to physiological senescence and microbe infection) at 4 days, and the moldy rate reached 100%. In contrast, the treatment with 1.5 mmol/L H2S donor, NaHS, inhibited the infection by micro-organisms, and no infection appeared until day 9.

Another experiment relates to freshly cut Kiwi fruits. As to the kind of experiment: NaHS solution fumigation of freshly cut Kiwi fruits. The protocol: as §1
The control freshly cut Kiwi fruits that were treated with water (0.0 mmol/L NaHS) lost their color and their edibility completely on day 4, while the shelf life of freshly cut Kiwi fruits treated with 0.25 mmol/L-1.75 mmol/L NaHS solution was prolonged by 2-3 days. […] The control freshly cut Kiwi fruits treated with 0.0 mmol/L NaHS solution underwent rot process in 5 days, and the rot rate reached 100% in 7 days.

Experiment [2] relates to freshly cut yams, sweet potatoes and potatoes. The experiment is described as follows: NaHS solution fumigation of freshly cut yams, sweet potatoes and potatoes. The protocol: as §1
The control freshly cut yams, sweet potatoes and potatoes that were treated with water (0.0 mmol/L NaHS) underwent browning at 10˜12 hours, while the browning time of freshly cut yams, sweet potatoes and potatoes treated with 0.25-1.75 mmol/L NaHS solution was postponed by about 15-20 hours.

The subject of experiment [3] is freshly cut chips of lettuce and lotus roots. The experiment is described as follows: NaHS solution fumigation of freshly cut chips of lettuce and lotus roots. The protocol: as §1
The control freshly cut chips of lettuce and lotus roots that were treated with water (0.0 mmol/L NaHS) lost their water and edibility after 15-24 hours, while the freshness of freshly cut chips of lettuce and lotus roots treated with 0.1 mmol/L-1.0 mmol/L NaHS solution was prolonged by 12-18 hours.

Experiment [4] concerns Mollusks, bees, grasshopper, drosophila, butterflies, and flies. Particulars: in vivo.
Text: First, it can be used in a closed space for the growth of crop and to protect the crop by its insecticidal, fungicidal, rodenticidal, pediculicidal, and biocidal actions.

Consider `S` [NaHS, sodium hydrosulfide], for which the “growth of bacteria and yeast on agar plates” value with bacteria or yeast is recorded as “no growth was evident”. The “food spoilage and growth of mold and/or bacteria” value in experiment [1] (500 mg NaHS, H2S 5-40 ppm in container, room temperature) is “prevents food spoilage and growth of mold and/or bacteria”. Besides, the discoloration result in experiment [1] (Avocado homogenized or cut pieces, day 3) is given as “maintained nearly the same color as that on day 1”; in experiment [1] (Leek, day 3), “These changes are not seen in the Exp group”; in experiment [1] (Mushroom) it was “These changes are less severe in the Exp group”. In addition, the “yeast growth, loss of consistency, discoloration” value in experiment [1] (Banana, day 8) is reported as “These changes are not seen in the Exp group”; in experiment [1] (Blackberry, day 6), “These changes are not seen in the Exp group”; in experiment [1] (Cantaloupe, day 4), “These changes are not seen in the Exp group”; in experiment [1] (Raspberry, day 6) it was “These changes are not seen in the Exp group”; in experiment [1] (Strawberry, day 4), “These changes are not seen in the Exp group”. In experiment [1] (Red meat, Chicken and Salmon, day 4), the “discoloration, foul smell, larvae and flies” value is “Meat discolored in the Exp group on day 4 but there was no evidence of foul smell or flies”. For the same compound, the “growth of yeast and bacteria, loss of consistency, discoloration” value in experiment [1] (Sprout, day 4) is “These changes are not seen in the Exp group”. In addition, the “shelf life prolonged by” value is 2 to 3 days in the experiment with freshly cut broccoli (0.25 mmol/L-1.75 mmol/L NaHS, control lost edibility on day 3); 3 days in the experiment on freshly cut broccoli (1.5 mmol/L NaHS (most optimal)); 2 to 3 days in the experiment on freshly cut Kiwi fruits (0.25 mmol/L-1.75 mmol/L NaHS, control lost edibility on day 4); 2 days in the experiment with freshly cut Kiwi fruits (1.5 mmol/L NaHS (best)). Further, in the experiment on freshly cut broccoli (1.5 mmol/L NaHS, control moldy rate 100% at 4 days), the “day until which no infection by micro-organisms appeared” value is 9 days. Further, the “day until which micro-organisms did not appear” value in the experiment on freshly cut Kiwi fruits (1.5 mmol/L NaHS, control rot rate 100% in 7 days) was found to be 10 days. The “browning time postponed by” value fell in the range of 15 to 20 h in experiment [2] (0.25-1.75 mmol/L NaHS, control browning at 10˜12 hours) and 16 to 20 h in experiment [2] (1.0-1.5 mmol/L NaHS (most optimal)). Further, the “freshness prolonged by” value in experiment [3] (0.1 mmol/L-1.0 mmol/L NaHS, control lost water and edibility after 15-24 hours) was 12 to 18 h; in experiment [3] (0.8 mmol/L-1.0 mmol/L NaHS (best)), 18 h. Also, in experiment [4], the death of pests entry was “die within seconds”.
